Like-named read-outs stand apart in the source and are kept apart here.
Assays:
senescent T cells [1] = assay: Inflammatory cytokine mRNA by real-time qPCR in responder/senescent T cells; assay type: cell-based, human
Protocol: (§1) Reverse-transcription quantitative PCR analysis. Total RNA was extracted from T cells using Trizol reagent (Invitrogen), and cDNA was transcribed using a SuperScript II RT kit (Invitrogen), both according to manufacturers' instructions. Expression levels of each gene were determined by reverse-transcription PCR using specific primers, and mRNA levels in each sample were normalized to the relative quantity of the housekeeping GAPDH or β-actin gene expression. All experiments were performed in triplicate.

senescent T cells [2] = assay: Suppressive activity of senescent T cells, [3H]-thymidine proliferation assay; assay type: cell-based, human; details: data not shown
Protocol: Functional proliferation assay. Proliferation assays were performed using a [^3H]-thymidine incorporation assay, as the inventors previously described (Liu et al., 2018; Ye et al., 2014; 2012; Peng et al., 2005; 2007). Naïve CD4+ T cells (1×10^5/well) purified from healthy donors were co-cultured with Treg-treated T cells at a ratio of 10:1 in 200 μl of T cell assay medium containing 2% human AB. After 56 hours of culture, [3H]-thymidine was added at a final concentration of 1 μCi/well, followed by an additional 16 hours of culture. The incorporation of [^3H]-thymidine was measured with a liquid scintillation counter.

[3] = tested on: naïve CD4+ and CD8+ T cells co-cultured with nTreg cells; assay: SA-β-gal staining, T cell senescence induced by Treg cells; assay type: cell-based, human; details: for senescence induction in T cells co-cultured with nTreg cells, lipid supplement: naïve CD4+ T cells, lipids 5 μM or 10 μM, 3 days
Protocol: Senescence associated β-galactosidase staining. Senescence associated β-galactosidase (SA-β-gal) activity in senescent T cells was detected as the inventors previously described 23,32,33. Naive CD4+ or CD8+ T cells were labeled with CFSE (4.5 μM), and co-cultured with Treg cells at a ratio of 4:1 in anti-CD3-coated 24-well plates for 3 days. Co-cultured naïve T cells were then separated from co-cultures using FACS sorting gated on CFSE positive populations, and then stained with SA-β-Gal staining reagent. […] For some experiments, naïve T cells were pretreated with the following inhibitors and then co-cultured with Treg cells. SA-β-gal expression in the co-cultured naïve T cells was determined. These inhibitors include: ACAT inhibitor Avasimable (5 μM and 10 μM), lipase inhibitor orlistat (10 μM), and cPLA2α inhibitor MAFP (1 μM and 5 μM) (Cayman Chemical); ATM inhibitor KU55933 (10 μM, Tocris Bioscience); stat1 inhibitor MTA (5 μM), stat3 inhibitor S3I-201 (10 μM) (Sigma-Aldrich); MAPK inhibitors including U0126 (10 μM) and SB203580 (10 μM) (Calbiochemistry).
(§2) Lipid supplement assay. Lysophosphatidylcholine (LPC, 16:0 LPC, 16:0 aLPC, and 16:0 pLPC), Phosphatidylethanolamine (PE, 16:0 lyso PE) and Phosphatidylserine (PS, 16:0 lyso PS) were purchased from the Avanti Polar Lipids, INC. C2-Ceramide was purchased from Sigma. All the lipids were dissolved in chloroform, evaporated under a gentle stream of nitrogen and then immediately dissolved in an ethanol vehicle (0.1%). Naïve CD4+ T cells were first treated with or without the lipids (5 μM or 10 μM) for 1 hour and then co-cultured with Treg cells at a ratio of 4:1 in anti-CD3-coated (2 μg/ml) plates for 3 days. The treated naïve CD4+ T cells were then performed SA-β-gal and Oil red O staining.

B16F10 tumor = assay: B16F10 melanoma, Pmel-1 T cell adoptive transfer therapy model in C57BL/6 mice; details: Pmel-1 T cells pretreated with ATK 0.5 μM 2 hours; ATK 10 mg·kg-1/mouse i.p. day 1, 4, 7, 10
[4] = tested on: naïve CD4+ and CD8+ T cells co-cultured with nTreg cells; assay: Oil-Red O staining, LD formation in T cells co-cultured with Treg cells; assay type: cell-based, human
Protocol: as §2
(§3) Oil-Red O staining. The treated T cells were washed in PBS (pH 7.2), fixed with 4% formaldehyde for 30 minutes, and treated with 60% isopropanol for 2-5 minutes. Cells were further stained with freshly prepared Oil-Red O staining solution (Sigma-Aldrich) in isopropanol (60%) for 5 minutes, followed by quick rinse with isopropanol (60%). The stained cells were then washed with H2O thoroughly and lipid droplets in T cells were evaluated using a light microscope.

[5] = tested on: naïve CD8+ T cells co-cultured with nTreg cells; assay: Lipidomics (ESI-MS/MS) of Treg-induced senescent T cells; assay type: cell-based, human
Protocol: Lipidomics analysis. Lipids from T cells were extracted by the method of Bligh and Dyer in the presence of internal standards including eicosanoic acid, 1-0-heptadecanoyl-LPC, dieicosanoyl-PC, ditetradecanoyl-PE, ditetradecanoyl-PS, N-heptadecanoyl-Cer, and cholesteryl heptadecanoate (Bligh and Dyer, 1959). Extracted lipids were resuspended in methanol/chloroform (2:1, by vol.) and analyzed by ESI-MS in the direct infusion mode at a flow rate of 3 μl/min using a Thermo Electron TSQ Quantrum Ultra® instrument. Samples were analyzed in both the positive and negative ion mode using a shotgun lipidomics approach (Han and Gross, 2005). For LPC, neutral loss (NL) scanning of 59.1 was monitored in the positive ion mode for sodiated molecular ions. NL scanning of 368.5 was performed for sodiated CE molecular species in the positive ion mode (Bowden et al., 2011). PE was derivatized to fMOC-PE species and monitored in negative ion mode using NL scanning of 222.2. Neutral loss scanning for Cer (NL 256.2), PC (NL50) and PS (NL 87) was performed in the negative ion mode (Han and Gross, 2005). Fatty acids were converted to pentafluorobenzyl esters and quantified using negative ion chemical ionization detection and gas chromatography (Quehenberger et al., 2010). Spectra were averaged over 3-5 min and processed utilizing Xcalibur® software (Thermo Electron). Individual molecular species were quantified by comparing the ion intensity of individual molecular species to that of the appropriate internal standards following corrections for type I and type II 13C isotope effects (Han and Gross, 2005). Additional corrections were made from response curves for CE molecular species (Bowden et al., 2011). Each sample was normalized to cell number, and values are expressed per million cells.

cPLA2α = assay: cPLA2α, p21 and p53 expression in Treg-treated T cells (western blot, qPCR, flow cytometry); assay type: cell-based, human
Protocol: Flow cytometry analysis. The expression markers on T cells were determined by flow cytometry analysis after surface staining or intracellular staining with anti-human specific antibodies conjugated with PE or Alexa Flour488. The human antibodies included: anti-CD27, anti-CD28, anti-phospho-ERK (Thr202/Tyr204), anti-phospho-p38 (Thr180/Tyr182), anti-phospho-STAT1 (Tyr701), anti-phospho-STAT3 (Tyr705 or Ser727), anti-phospho-ATM, anti-phospho-H2AX, anti-phospho-CHK2, anti-phospho-53BP1, and anti-cPLA2α, which were purchased from BD Biosciences, Biolegend, or Cell Signaling Technology. For Bodipy 493/503 staining (Thermo Fisher Scientific), T cells were incubated with Bodipy 493/503 (1 μg/ml) at room temperature for 15 minutes. All stained cells were analyzed on a LSR II cytometer (BD Bioscience) and data analyzed with FlowJo software (Tree Star).
Western-blotting analysis. CFSE-labeled naïve CD4+ or CD8+ T cells were co-cultured with Treg or control T cells at a ratio of 4:1 in the anti-CD3 antibody-precoated plates (2 μg/ml) for 3 days. In some experiments, T cells were pretreated with the cPLA2α inhibitor MAFP (5 M) for 24 hours, and then co-cultured with Treg cells. Treated T cells were then sorted by FACS gating on CFSE positive T cells. Whole cell lysates of the purified CD4+ T cells were prepared for western blot analyses. Western blots were developed with the Chemiluminescent Substrate (KPL, Maryland). The rabbit polyclonal antibodies used in the western blot analyses are as following: anti-cPLA2α, anti-P53, anti-P21, and anti-GAPDH. All antibodies were purchased from the Cell Signaling Technology.
as §1

[6] = tested on: MAPK and STAT1/STAT3 signaling; assay: Phosphorylation of p38, ERK, STAT1 and STAT3 by flow cytometry in Treg-treated CD4+ T cells; assay type: cell-based, human; details: pretreated 24 hours (KU55933 10 μM; MAFP 5 μM), Treg co-culture 3 days
naïve T cells [7] = assay: SA-β-gal staining of naïve T cells cultured with the substance alone; assay type: cell-based, human
Protocol: Senescence associated β-galactosidase staining. […] Naive CD4+ or CD8+ T cells were labeled with CFSE (4.5 μM), and co-cultured with Treg cells at a ratio of 4:1 in anti-CD3-coated 24-well plates for 3 days. Co-cultured naïve T cells were then separated from co-cultures using FACS sorting gated on CFSE positive populations, and then stained with SA-β-Gal staining reagent. For tumor-induced T cell senescence, anti-CD3 activated naïve CD4+ T cells or CD8+ T cells were co-cultured with or without tumor cells at ratio of 1:1 for 1 day and then separated and cultured for additional 3 days. For some experiments, naïve T cells were pretreated with the following inhibitors and then co-cultured with Treg cells. SA-β-gal expression in the co-cultured naïve T cells was determined. These inhibitors include: ACAT inhibitor Avasimable (5 μM and 10 μM), lipase inhibitor orlistat (10 μM), and cPLA2α inhibitor MAFP (1 μM and 5 μM) (Cayman Chemical); ATM inhibitor KU55933 (10 μM, Tocris Bioscience); stat1 inhibitor MTA (5 μM), stat3 inhibitor S3I-201 (10 μM) (Sigma-Aldrich); MAPK inhibitors including U0126 (10 μM) and SB203580 (10 μM) (Calbiochemistry).

naïve T cells [8] = assay: Oil-Red O staining of naïve T cells cultured with the substance alone; assay type: cell-based, human
Protocol: as §3

[9] = naïve CD4+ and CD8+ T cells pretreated with inhibitor 24 hours, co-cultured with nTreg 4:1, anti-CD3, 3 days
[10] = naïve CD4+ and CD8+ T cells pretreated with inhibitor 24 hours, co-cultured with nTreg 4:1, 3 days
[11] = pretreated with inhibitor 24 hours, Treg co-culture
[12] = anti-CD3 coated plates, 3 days, no Treg cells
[13] = CD8+ T cells pretreated with inhibitor 24 hours, nTreg co-culture 3 days

## O=CC[C@@H](O)[C@H](O)[C@H](O)CO [2-DG]
Senescent T cells [1]; senescent CD8+ T cells, 3-BrPA (30 μM) or 2-DG (2 mM), additional 1 day
  secretion of pro-inflammatory cytokines by senescent T cells: significantly decreased
Senescent T cells [2]
  suppressive activity of senescent T cells on proliferation of effector T cells: inhibited their suppressive activity

## O=C(O)C(=O)CBr [3-BrPA]
Senescent T cells [1]
  secretion of pro-inflammatory cytokines by senescent T cells: significantly decreased
Senescent T cells [2]
  suppressive activity of senescent T cells on proliferation of effector T cells: inhibited their suppressive activity

## CCCCC/C=C\C/C=C\C/C=C\C/C=C\CCCC(=O)C(F)(F)F [ATK]
[3]; [9]
  senescent (SA-β-gal+) T cell populations induced by Treg cells: can prevent T cell senescence
B16F10 tumor
  anti-tumor immunity and tumor immunotherapy, ATK: enhances anti-tumor immunity and tumor immunotherapy in vivo

## CCCCCCCCCCCCC/C=C/[C@@H](O)[C@H](CO)NC(C)=O [Cer, C2-Ceramide]
[3]
  senescence induction in T cells co-cultured with nTreg cells, lipid supplement: markedly prevented senescence induction

## O=c1cc(-c2cccc3c2Sc2ccccc2S3)oc(N2CCOCC2)c1 [KU55933]
[3]; [9]
  senescent (SA-β-gal+) T cell populations induced by Treg cells: dramatically reduced
[4]; [10]
  LD formation (Oil red O+ T cell populations) induced by Treg cells: dramatically reduced
[5]; CD8+ T cells pretreated with KU55933 (10 μM) 1 day, nTreg co-culture 3 days
  CE and FFA in senescent T cells: markedly prevented Treg-induced up-regulation of CE and FFA
cPLA2α; [11]
  cPLA2α expression in Treg-induced senescent T cells: significantly decreased both mRNA and protein expression of cPLA2α
[6]
  phosphorylation of p38, ERK, STAT1 and STAT3 in Treg-treated CD4+ T cells: prevented phosphorylation of MAPKs and STAT1/STAT3

## CSC[C@H]1O[C@@H](n2cnc3c(N)ncnc32)[C@H](O)[C@@H]1O [MTA]
[3]; [9]
  senescent (SA-β-gal+) T cell populations induced by Treg cells: prevented senescence induction
[4]; [10]
  LD formation (Oil red O+ T cell populations) induced by Treg cells: significantly decreased Oil red O+ T cell populations
naïve T cells [7]; [12]
  cell senescence (SA-β-gal) in naïve T cells, substance alone: did not promote cell senescence
naïve T cells [8]; [12]
  LD formation (Oil-red O) in naïve T cells, substance alone: did not promote cell senescence and LD formation
[5]; [13]
  CE and PC in senescent T cells: significantly prevented the Treg-induced up-regulation of CE and down-regulation of PC
cPLA2α; [11]
  cPLA2α expression in Treg-induced senescent T cells: dramatically suppressed the enhanced cPLA2α expression

## Cc1ccc(S(=O)(=O)OCC(=O)Nc2ccc(C(=O)O)c(O)c2)cc1 [S3I-201]
[3]; [9]
  senescent (SA-β-gal+) T cell populations induced by Treg cells: prevented senescence induction
[4]; [10]
  LD formation (Oil red O+ T cell populations) induced by Treg cells: significantly decreased Oil red O+ T cell populations
naïve T cells [7]; [12]
  cell senescence (SA-β-gal) in naïve T cells, substance alone: did not promote cell senescence
naïve T cells [8]; [12]
  LD formation (Oil-red O) in naïve T cells, substance alone: did not promote cell senescence and LD formation
[5]; [13]
  CE and PC in senescent T cells: significantly prevented the Treg-induced up-regulation of CE and down-regulation of PC
cPLA2α; [11]
  cPLA2α expression in Treg-induced senescent T cells: dramatically suppressed the enhanced cPLA2α expression

## C[S+]([O-])c1ccc(-c2nc(-c3ccncc3)c(-c3ccc(F)cc3)[nH]2)cc1 (stereo not shown) [SB203580]
[3]
  senescent (SA-β-gal+) T cell populations induced by Treg cells: prevented senescence induction
[4]
  LD formation (Oil red O+ T cell populations) induced by Treg cells: significantly decreased Oil red O+ T cell populations
naïve T cells [7]
  cell senescence (SA-β-gal) in naïve T cells, substance alone: did not promote cell senescence
naïve T cells [8]
  LD formation (Oil-red O) in naïve T cells, substance alone: did not promote cell senescence and LD formation
[5]
  CE and PC in senescent T cells: significantly prevented the Treg-induced up-regulation of CE and down-regulation of PC
cPLA2α
  cPLA2α expression in Treg-induced senescent T cells: dramatically suppressed the enhanced cPLA2α expression

## N#CC(=C(/N)Sc1ccccc1N)/C(C#N)=C(\N)Sc1ccccc1N [U0126]
[3]
  senescent (SA-β-gal+) T cell populations induced by Treg cells: prevented senescence induction
[4]
  LD formation (Oil red O+ T cell populations) induced by Treg cells: significantly decreased Oil red O+ T cell populations
naïve T cells [7]
  cell senescence (SA-β-gal) in naïve T cells, substance alone: did not promote cell senescence
naïve T cells [8]
  LD formation (Oil-red O) in naïve T cells, substance alone: did not promote cell senescence and LD formation
[5]
  CE and PC in senescent T cells: significantly prevented the Treg-induced up-regulation of CE and down-regulation of PC
cPLA2α
  cPLA2α expression in Treg-induced senescent T cells: dramatically suppressed the enhanced cPLA2α expression

## CC(C)c1cc(C(C)C)c(CC(=O)NS(=O)(=O)Oc2c(C(C)C)cccc2C(C)C)c(C(C)C)c1 [avasimible]
[3]; [9]
  senescent (SA-β-gal+) T cell populations induced by Treg cells: dramatically reduced
[4]; [10]
  LD formation (Oil red O+ T cell populations) induced by Treg cells: dramatically reduced
naïve T cells [7]; [12]
  cell senescence (SA-β-gal) in naïve T cells, substance alone: does not induce cell senescence
naïve T cells [8]; [12]
  LD formation (Oil-red O) in naïve T cells, substance alone: does not induce cell senescence and LD formation
[5]; CD8+ T cells pretreated 24 hours, nTreg co-culture 3 days
  total and sub-fractions of CE in senescent T cells: did not significantly down-regulate total and sub-fractions of CE

## CCCCCCCCCCC[C@@H](C[C@@H]1OC(=O)[C@H]1CCCCCC)OC(=O)[C@H](CC(C)C)NC=O [orlistat]
naïve T cells [7]; [12]
  cell senescence (SA-β-gal) in naïve T cells, substance alone: dramatically increased cell senescence
naïve T cells [8]; [12]
  LD formation (Oil-red O) in naïve T cells, substance alone: promoted LD formation

## Lysophosphatidylcholine [LPC]
[3]
  senescence induction in T cells co-cultured with nTreg cells, lipid supplement: markedly prevented senescence induction

## Phosphatidylethanolamine [PE]
[3]
  senescence induction in T cells co-cultured with nTreg cells, lipid supplement: markedly prevented senescence induction

## Phosphatidylserine [PS]
[3]
  senescence induction in T cells co-cultured with nTreg cells, lipid supplement: markedly prevented senescence induction

From patent US12590309B2, “Reprogramming of lipid metabolism to inhibit T cell senescence and enhance tumor immunotherapy” (Saint Louis University, priority 2019, dated 2026)
